Results on ten molecules are retold here after ChEMBL document CHEMBL1201862, “PubChem BioAssay data set” (2004).

Test systems include KM12; SNB-75; OVCAR-8; HL-60; MDA-MB-435; OVCAR-5; SR; RXF 393; 786-0; CCRF-CEM; SK-MEL-28; UACC-257; SF-539; ACHN; HOP-92; BT-549; SNB-19; A549; T47D; HCC 2998.
Common to all, as to assay: NCI anticancer screen, dose series, 48 h

The structures appear in SMILES notation.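 96-well plates; 48 h exposure; 5 concentrations. Endpoints by linear interpolation between flanking doses. Not reached: highest tested concentration assigned. Here, GI50 denotes the concentration required for 50% inhibition of growth.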 Activity calls are given as the source filed them. Rule as the data show it: active = GI50 up to about 1.1 µM and inactive = higher.

In the case of `O=C1Cc2c(-c3ccc(Cl)cc3)cc(-c3ccccc3)nc2-c2ccccc2N1`, the GI50 is 9.25 µM (inactive) in the assay with KM12; 3.82 µM (inactive) in the assay on SNB-75; 2.76 µM (inactive) in the assay on OVCAR-8; 10.7 µM (inactive) in the assay on HL-60; 7.76 µM (inactive) with MDA-MB-435; 16.2 µM (inactive) with OVCAR-5. Further, the GI50 with SR was 7.13 µM (inactive); in the assay on RXF 393, 4.81 µM (inactive); in the assay with 786-0, 2.03 µM (inactive); with CCRF-CEM, 6.35 µM (inactive); with SK-MEL-28, 4.67 µM (inactive); in the assay on UACC-257 it was 25.4 µM (inactive). For the same molecule, the GI50 in the assay on SF-539 is 8.87 µM (inactive); with ACHN, 5.09 µM (inactive); in the assay with HOP-92 it was 2.4 µM (inactive); in the assay with BT-549, 21.4 µM (inactive); in the assay on SNB-19, 1.87 µM (inactive); in the assay on A549, 5.66 µM (inactive). In addition, the GI50 is 2.66 µM (inactive) in the assay with T47D and 4.06 µM (inactive) in the assay on HCC 2998.
Regarding `CC(C)(C)OC(=O)NCCNC(=O)CN(CC(=O)O)C1CCCCC1N(CC(=O)O)CC(=O)O` (stereo not given), the GI50 with KM12, in the assay on SNB-75, with OVCAR-8, with HL-60, in the assay with MDA-MB-435 and in the assay on OVCAR-5 was > 100 µM (inactive) in each case. Also, the GI50 in the assay with SR, in the assay on RXF 393, in the assay on 786-0, with CCRF-CEM, with SK-MEL-28 and with UACC-257 was > 100 µM (inactive) in each case. In addition, the GI50 with SF-539, in the assay on ACHN, in the assay on HOP-92, in the assay with BT-549, with SNB-19 and with A549 was > 100 µM (inactive) throughout. For the same molecule, the GI50 with T47D and in the assay on HCC 2998 was > 100 µM (inactive) each time.
As for `CCCCOC(=O)C(=O)C(CCC(=O)c1ccc(C)cc1)C(=O)C=C(C)C` (stereo not given), the GI50 with KM12, in the assay with SNB-75, in the assay with OVCAR-8, in the assay with HL-60, in the assay with MDA-MB-435 and in the assay on OVCAR-5 was > 100 µM (inactive) each time. In addition, the GI50 in the assay on SR, in the assay on RXF 393, in the assay on 786-0, in the assay with CCRF-CEM, in the assay on SK-MEL-28 and in the assay on UACC-257 was > 100 µM (inactive) in each case. Besides, the GI50 with SF-539 was > 100 µM (inactive); in the assay on ACHN it was > 100 µM (inactive); in the assay with HOP-92 it was > 100 µM (inactive); with BT-549, > 100 µM (inactive); in the assay with SNB-19, 52.7 µM (inactive); in the assay with A549, > 100 µM (inactive). For the same molecule, the GI50 with T47D and with HCC 2998 was > 100 µM (inactive) in each case.
On to `CC[S+]([O-])c1c2cc(OC)ccc2nc2ccc(OC)cc12` (stereo not given), for which the GI50 in the assay on KM12 is 16.2 µM (inactive); in the assay with SNB-75, 21 µM (inactive); with OVCAR-8 it was 5.55 µM (inactive); in the assay with HL-60, 4.99 µM (inactive); with MDA-MB-435, 8.85 µM (inactive); in the assay with OVCAR-5, 17.8 µM (inactive). Besides, the GI50 was 3.51 µM (inactive) in the assay with SR; 4.71 µM (inactive) in the assay on RXF 393; 2.56 µM (inactive) in the assay on 786-0; 3.79 µM (inactive) in the assay with CCRF-CEM; 7.91 µM (inactive) with SK-MEL-28; 5.45 µM (inactive) in the assay with UACC-257. Besides, the GI50 in the assay on SF-539 was 6.79 µM (inactive); in the assay with ACHN it was 4.79 µM (inactive); in the assay on HOP-92 it was 7.16 µM (inactive); with BT-549, 17.5 µM (inactive); in the assay on SNB-19, 20 µM (inactive); in the assay on A549 it was 22.6 µM (inactive). In addition, the GI50 in the assay with T47D is 2.62 µM (inactive); with HCC 2998, 16.6 µM (inactive).
With `Cc1c(/N=C\c2ccc(N(CCC#N)CCC#N)cc2)c(=O)n(-c2ccccc2)n1C`, the GI50 with KM12 was > 100 µM (inactive); in the assay on SNB-75 it was 20.7 µM (inactive); in the assay on OVCAR-8, > 100 µM (inactive); in the assay with HL-60, > 100 µM (inactive); with MDA-MB-435, > 100 µM (inactive); in the assay with OVCAR-5 it was > 100 µM (inactive). For the same molecule, the GI50 in the assay on SR was > 100 µM (inactive); in the assay on RXF 393, 24 µM (inactive); with 786-0, 24.4 µM (inactive); in the assay on CCRF-CEM, > 100 µM (inactive); in the assay on SK-MEL-28, > 100 µM (inactive); in the assay on UACC-257 it was > 100 µM (inactive). Also, the GI50 in the assay with SF-539 was 31.6 µM (inactive); with ACHN, 22.5 µM (inactive); in the assay on HOP-92 it was 45.7 µM (inactive); in the assay with BT-549, > 100 µM (inactive); with SNB-19, 41.8 µM (inactive); in the assay on A549 it was 82.6 µM (inactive). In addition, the GI50 in the assay with T47D and in the assay with HCC 2998 was > 100 µM (inactive) throughout.
Turning to `CCOC(=O)c1c(C)n(CCN2CCN(C)CC2)c2ccc(OC)cc12`, the GI50 with KM12 is 44.3 µM (inactive); in the assay on SNB-75, 24.8 µM (inactive); with OVCAR-8 it was > 100 µM (inactive); in the assay with HL-60 it was 19.6 µM (inactive); in the assay with MDA-MB-435, 19.9 µM (inactive); in the assay on OVCAR-5, 61.4 µM (inactive). Besides, the GI50 with SR is 20 µM (inactive); with RXF 393, 30.1 µM (inactive); with 786-0, 38 µM (inactive); in the assay with CCRF-CEM, 24 µM (inactive); in the assay on SK-MEL-28 it was 16.5 µM (inactive); in the assay on UACC-257 it was 16.9 µM (inactive). For the same molecule, the GI50 with SF-539 is 30 µM (inactive); in the assay on ACHN, 65 µM (inactive); with HOP-92, 14 µM (inactive); with BT-549, 45.4 µM (inactive); in the assay with SNB-19 it was 90.2 µM (inactive); in the assay with A549, > 100 µM (inactive). Further, the GI50 with T47D was 34.4 µM (inactive); in the assay on HCC 2998, 16.6 µM (inactive).
For `C[C@]12CCC(=O)C=C1CC[C@@H]1[C@@H]2[C@@H](O)C[C@@]2(C)[C@H]1CC[C@]2(O)C(=O)CO` [HYDROCORTISONE], the GI50 with KM12, in the assay with SNB-75, in the assay on OVCAR-8, in the assay with HL-60, with MDA-MB-435 and with OVCAR-5 was > 100 µM (inactive) in each case. The GI50 with SR was > 100 µM (inactive); in the assay with RXF 393, > 100 µM (inactive); in the assay with 786-0, > 100 µM (inactive); with CCRF-CEM, 18.7 µM (inactive); with SK-MEL-28, > 100 µM (inactive); in the assay with UACC-257, > 100 µM (inactive). Also, the GI50 in the assay on SF-539, in the assay on ACHN, with HOP-92, in the assay with BT-549, with SNB-19 and in the assay with A549 was > 100 µM (inactive) in each case. In addition, the GI50 with T47D and in the assay on HCC 2998 was > 100 µM (inactive) each time.
For `c1ccc2oc(-c3ccc(-c4nc5ccccc5o4)c4c3CC4)nc2c1`, the GI50 in the assay with KM12, in the assay with SNB-75, in the assay with OVCAR-8, in the assay with HL-60, in the assay with MDA-MB-435 and with OVCAR-5 was > 100 µM (inactive) each time. In addition, the GI50 with SR, in the assay with RXF 393, with 786-0, in the assay with CCRF-CEM, in the assay with SK-MEL-28 and in the assay on UACC-257 was > 100 µM (inactive) each time. Moreover, the GI50 with SF-539, in the assay with ACHN, with HOP-92, in the assay on BT-549, in the assay with SNB-19 and in the assay with A549 was > 100 µM (inactive) throughout. In addition, the GI50 in the assay on T47D and in the assay on HCC 2998 was > 100 µM (inactive) each time.
In the case of `OC1COC(n2c3ccc(Br)cc3c3ccc4c5ccccc5[nH]c4c32)C(O)C1O` (stereo not given), the GI50 in the assay with KM12 is 1.56 µM (inactive); in the assay on SNB-75, 3.24 µM (inactive); in the assay on OVCAR-8, 3.65 µM (inactive); with HL-60, 3.48 µM (inactive); in the assay with MDA-MB-435 it was 3.89 µM (inactive); with OVCAR-5 it was 2.92 µM (inactive). Besides, the GI50 with SR was 3.67 µM (inactive); with RXF 393, 1.76 µM (inactive); with 786-0, 3.96 µM (inactive); with CCRF-CEM, 4.72 µM (inactive); in the assay on SK-MEL-28, 1.13 µM (inactive); in the assay on UACC-257, 5.21 µM (inactive). In addition, the GI50 in the assay on SF-539 was 5.24 µM (inactive); in the assay with ACHN, 2.84 µM (inactive); with HOP-92, 2.54 µM (inactive); in the assay on BT-549 it was 1.1 µM (active); with SNB-19 it was 10.7 µM (inactive); with A549 it was 2.61 µM (inactive). In addition, the GI50 is 5.21 µM (inactive) in the assay with T47D and 2.67 µM (inactive) in the assay with HCC 2998.
With `Cc1cccc2c(N)c3cccc(C(=O)NCCNCCN)c3nc12`, the GI50 in the assay on KM12 was 3.89 µM (inactive); in the assay with SNB-75 it was 0.631 µM (active); with OVCAR-8 it was 0.995 µM (active); in the assay with HL-60 it was 8.83 µM (inactive); in the assay on MDA-MB-435, 18.7 µM (inactive); in the assay on OVCAR-5, 22.8 µM (inactive). Also, the GI50 is 8.09 µM (inactive) with SR; 12.6 µM (inactive) in the assay on RXF 393; 0.0644 µM (active) in the assay with 786-0; 0.448 µM (active) with CCRF-CEM; 15.8 µM (inactive) with SK-MEL-28; 26.2 µM (inactive) in the assay on UACC-257. The GI50 in the assay on SF-539 was 1.61 µM (inactive); in the assay on ACHN, 3.8 µM (inactive); with HOP-92 it was 7.6 µM (inactive); in the assay with BT-549, 14.6 µM (inactive); with SNB-19, 1.16 µM (inactive); with A549, 0.203 µM (active). In addition, the GI50 in the assay on T47D is 7.36 µM (inactive); in the assay with HCC 2998, 6.79 µM (inactive).
